Experimental data as given in patent publication US20050058600A1, “3,3'-Diindolylmethane antiandrogenic compositions” (priority 2003, published 2005).

What was measured:
[1] = test system: benzo(a)pyrene (BP)-induced tumors of the forestomach; settings: mice; cited from earlier work
[2] = target: T1, AR (Homo sapiens, UniProt P10275, T878A); assay: MMTV-Luc / pPSA-Luc reporter assay in LNCaP cells; assay type: cell-based
T1 construct: 95 μL of either LNCaP cell extracts or recombinant AR protein; endogenous in cells; host or cells: LNCaP
T1 sequence (P10275 1-920 T878A): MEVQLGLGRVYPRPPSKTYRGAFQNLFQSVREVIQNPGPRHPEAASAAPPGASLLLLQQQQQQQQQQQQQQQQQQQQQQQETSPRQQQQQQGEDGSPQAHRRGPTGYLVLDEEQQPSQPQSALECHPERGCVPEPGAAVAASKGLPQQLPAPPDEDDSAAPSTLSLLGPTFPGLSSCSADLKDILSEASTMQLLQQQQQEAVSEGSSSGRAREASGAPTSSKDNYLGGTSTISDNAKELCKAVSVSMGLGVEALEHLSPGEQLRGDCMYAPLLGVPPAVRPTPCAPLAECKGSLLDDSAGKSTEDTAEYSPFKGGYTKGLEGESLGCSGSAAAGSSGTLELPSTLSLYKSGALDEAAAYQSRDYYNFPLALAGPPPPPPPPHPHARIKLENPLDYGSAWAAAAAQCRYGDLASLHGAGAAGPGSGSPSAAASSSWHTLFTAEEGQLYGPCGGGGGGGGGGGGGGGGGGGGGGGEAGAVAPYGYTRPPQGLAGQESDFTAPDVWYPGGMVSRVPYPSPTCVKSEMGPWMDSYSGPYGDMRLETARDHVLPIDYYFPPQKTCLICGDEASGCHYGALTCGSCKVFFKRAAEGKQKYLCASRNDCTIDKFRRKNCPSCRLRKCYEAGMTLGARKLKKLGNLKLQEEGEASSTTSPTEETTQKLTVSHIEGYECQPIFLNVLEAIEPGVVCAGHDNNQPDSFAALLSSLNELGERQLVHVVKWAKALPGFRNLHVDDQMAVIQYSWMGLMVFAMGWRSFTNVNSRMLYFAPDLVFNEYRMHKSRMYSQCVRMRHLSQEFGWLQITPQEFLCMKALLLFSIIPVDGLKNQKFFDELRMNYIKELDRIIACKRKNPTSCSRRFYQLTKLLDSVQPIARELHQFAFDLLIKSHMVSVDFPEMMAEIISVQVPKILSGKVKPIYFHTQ
Method: Plasmid Reporters and Expression Vectors. The ARE responsive luciferase reporter plasmid, pPSA-630 luciferase (pPSA-Luc) was prepared as previously described (29). pPSA-Luc contains the PSA promoter region (−630 to 12) with three AREs, all of which are critical to the activity of the pPSA-Luc promoter. The MMTV-Luc contains one consensus ARE and the expression vector, pCMV-hAR constitutively expresses a fully functional human androgen receptor. The pCMV-GFP-rAR was prepared as previously described (30).
Transient Transfections with Reporters and Luciferase Assay. LNCaP and PC-3 cells were transfected, with some modifications, as previously described (20). For AR transactivation, cells were transfected with 0.1 μg of MMTV-Luc or pPSA-Luc per plate. Co-transfection experiments with pCMV-hAR or pCMV-GFP-rAR, 0.1 μg per plate was also used. For experiments involving GFP fluorescence imaging, treatments were not added until 30 h after transfection.

[3] = target: T2, mutant AR of LNCaP cells (Homo sapiens, UniProt P10275, T878A); assay: Competitive [3H]DHT binding assay, LNCaP cell extracts; settings: micromolar concentration range
T2 construct: 95 μL of either LNCaP cell extracts or recombinant AR protein; endogenous in cells; host or cells: LNCaP
T2 sequence (P10275 1-920 T878A): T1 sequence (P10275 1-920 T878A)
Method: Hormone Binding Assay. LNCaP cells were grown in 5% DCC-FBS-DMEM medium supplemented with 4.0 g/L glucose and 3.7 g/L sodium bicarbonate and harvested in HBS containing 1.5 mM EDTA by scraping with a rubber policeman. The cells were placed on ice, collected by centrifugation, washed with ice-cold TKEG buffer (20 mM Tris-HCl pH 7.4, 50 mM KCl, 1 mM EDTA, 0.1 mM PMSF, and 10% glycerol) and resuspended in 250 μL/plate homogenization buffer (50 mM Tris-HCl pH 7.4, 1.5 mM EDTA, 10 mM sodium molybdate, 2.5 mM β-mercaptoethanol, 50 mM KCl, 0.1 mM PMSF, and 10% glycerol). Cells were homogenized using a Polytron apparatus at medium speed for 1 min on ice. The homogenates were centrifuged at 50,000 rpm in 4° C. for 60 min. The supernatant solution was divided into 1.0 mL aliquots, quickly frozen in a dry-ice/ethanol bath and stored at −80° C. Protein concentration was determined by the Bradford assay using bovine serum albumin as the standard. […] Competitive ligands were added as 1.0 μL of 100× solution in DMSO. After mixing, 95 μL of either LNCaP cell extracts or recombinant AR protein (PanVera, Madison, Wis.) was added and the solutions were vortexed and incubated at room temperature for 2-3 h. […]

[4] = test system: LNCaP cells; assay: LNCaP cell proliferation (cell counting); assay type: cell-based; settings: Homo sapiens, 96 h treatment, read-out: maximal inhibition of LNCaP cell proliferation
Method: (§1) DIM was prepared from I3C as described (26-28) and recrystallized in toluene. The human prostate adenocarcinoma cell lines LNCaP-FGC and PC-3 were obtained from the American Type Culture Collection (Rockville, Md.). They were grown as adherent monolayers in 10% FBS-DMEM, supplemented with 4.0 g/L glucose and 3.7 g/L sodium bicarbonate in a humidified incubator at 37° C. and 5% CO2 and passaged at approximately 80% confluency. Cultures used in subsequent experiments were at less than 40 passages. Cells grown in stripped conditions were in 5% DCC-FBS-DMEM base supplemented with 4.0 g/L glucose, 3.7 g/L sodium bicarbonate, and 0.293 g/L L-Glutamine.
(§2) Cell Growth. Before the beginning of the treatments, cells were depleted of androgen for 4-7 d in medium composed of DMEM base without phenol-red and with 4.0 g/L glucose and 3.7 g/L sodium bicarbonate. During the depletion period, medium was changed every 48 h. Treatments were administered by addition of 1 μL of 1,000× solution in DMSO per mL of medium. Once the treatment period started, medium was changed daily to counter possible loss of readily metabolized compounds.
(§3) Cell Counting. Cells were harvested by trypsinization and resuspended in culture medium. Aliquots were diluted 50-fold in Isoton II (Coulter Corp., Miami, Fla.) and 200 μL duplicates were counted in a model Z1 Coulter particle counter and averaged.

[5] = test system: dimethylbenzanthracene (DMBA)-induced mammary tumors; settings: rats; cited from earlier work
[6] = test system: PSA protein; assay: Western blot of intracellular and secreted PSA in LNCaP cells; assay type: cell-based, human; settings: DHT co-treatment
Method: Analysis of Intracellular and Secreted PSA. LNCaP cells growing on 100 mm plates were treated for 24 h. Cells were lysed as previously described (20) for intracellular PSA analysis. For secreted proteins, spent medium was collected and concentrated 18-fold using Millipore Centriprep YM-10 following manufacturer's protocol (Bedford, Mass.). Protease inhibitors were added and the proteins were immunoprecipitated with 3 μg/mL monoclonal free PSA antibody (Biodesign International) for 2 h and co-immunoprecipitated overnight at 4° C. with Protein A/G agarose (Santa Cruz Biotechnology, Santa Cruz, Calif.) on a rotator. The samples were then subjected to Western blot analysis as described previously (20) using a monoclonal PSA (sc-7316) primary antibody and a goat anti-mouse-IgG-AP secondary antibody.

[7] = test system: PC-3 cells; assay: PC-3 cell growth (cell counting); assay type: cell-based, human; settings: 96 h treatment; same concentrations (up to 50 μM)
Method: as §1, §2, §3

inhibition at 1 µM ([2]; read-out: inhibition of DHT induction of androgen-responsive genes, 1 μM, both MMTV-Luc and pPSA-Luc): > 50%
inhibition at 10 µM ([2]; read-out: inhibition of DHT induction of androgen-responsive genes, 10 μM, both MMTV-Luc and pPSA-Luc): > 90%
transactivation of reporter genes by compound alone ([2]; without DHT): failed to induce transactivation
Structure (SMILES): c1ccc2c(Cc3c[nH]c4ccccc34)c[nH]c2c1 [DIM, 3,3′-diindolylmethane]
incidence of BP-induced tumors of the forestomach [1]: reduced the incidence
competition with labeled DHT for binding to the AR [3]: competes with labeled DHT for binding to the AR
inhibition at 50 µM [4]: 70%
incidence of DMBA-induced mammary tumors [5]: reduced the incidence
levels of intracellular and secreted PSA protein [6]: reduced levels of intracellular and secreted PSA protein to background concentrations
effects on the growth of PC-3 cells [7]: no observable effects
